Source: patent US12178878B2, “Amyloid peptide scaffolds coordinate with Alzheimer's disease drugs” (The University of Massachusetts, priority 2018, dated 2024)
Like-named read-outs stand apart in the source and are kept apart here.

Key:
[1] = system: […] (SEQ ID NO: 4) amyloid peptide; type: binding; details: YFTGAIIGNFY gel 5 mg/mL, 1000 μM inhibitor solution added, by MS
Method: (§1) Amyloid Fibrils Preparation and Characterization. For the formation of fibrils, the amyloid peptides were dispersed in DI water at a 10 mg/ml, vortexed, heated at 60° C. for 30 sec, and sonicated for 15 mins (this cycle was repeated 10 times overall), and finally left overnight at room temperature to form a hydrogel.
(§2) A control using 1 mL of 0.1 M PBS (no inhibitor) was also prepared. The complexed amyloid/inhibitor materials were then transferred to 5 mL conical Eppendorf tubes, and centrifuged for 15 mins at 4,400 rpm (14° C.). The supernatant was decanted, and 2 mL of DI water were subsequently added to wash the pellet (followed by vortexing until obtaining a homogenous dispersion) in order to remove any unbound inhibitor. The samples were then centrifuged again at the same conditions so as to pelletize the amyloid materials, and the supernatant was decanted. Another 2 mL of DI water were then added into the pellet, the mixture was vortexed, and the physically bound inhibitor into the amyloid peptides was quantified by UV-Vis between 200-600 nm and MS. This step is denoted as wash 1 in our study. Two additional pellet purification cycles were realized with replacement of the decanted volume each time with 2 mL of fresh DI water (denoted as wash 2 and wash 3 respectively). The inhibitor-containing amyloid peptides were normalized at 400 nm over the respective no inhibitor-containing ones at the specific washing step.

[2] = system: […] (SEQ ID NO: 3) amyloid peptide; assay: Coordination at higher peptide concentration (amyloid gel, 5 mg/mL), inhibitor capturing; type: binding; details: FYTGAIIGNYF gel 5 mg/mL, 1000 μM inhibitor solution added, by MS
Method: as §1, with “hydrogel. […] That was confirmed with Field Emission Scanning Electron Microscopy (FESEM) and Congo Red staining (CR).” for “hydrogel.”
as §2, with “Coordination Studies at Higher Peptide Concentrations and Inhibitor Capturing. […] (SEQ ID NO: 4) or […] (SEQ ID NO: 3) amyloid peptide gels (10 mg/mL, 1 mL volume) and was left to physically complex under stirring overnight (the final peptide concentration was diluted to 5 mg/mL). A control” for “A control”

AChE = AChE (Homo sapiens, UniProt P22303); details: in vitro, Ellman's assay, among marketed AD drugs; cited from earlier work
AChE, sequence (P22303 32-614): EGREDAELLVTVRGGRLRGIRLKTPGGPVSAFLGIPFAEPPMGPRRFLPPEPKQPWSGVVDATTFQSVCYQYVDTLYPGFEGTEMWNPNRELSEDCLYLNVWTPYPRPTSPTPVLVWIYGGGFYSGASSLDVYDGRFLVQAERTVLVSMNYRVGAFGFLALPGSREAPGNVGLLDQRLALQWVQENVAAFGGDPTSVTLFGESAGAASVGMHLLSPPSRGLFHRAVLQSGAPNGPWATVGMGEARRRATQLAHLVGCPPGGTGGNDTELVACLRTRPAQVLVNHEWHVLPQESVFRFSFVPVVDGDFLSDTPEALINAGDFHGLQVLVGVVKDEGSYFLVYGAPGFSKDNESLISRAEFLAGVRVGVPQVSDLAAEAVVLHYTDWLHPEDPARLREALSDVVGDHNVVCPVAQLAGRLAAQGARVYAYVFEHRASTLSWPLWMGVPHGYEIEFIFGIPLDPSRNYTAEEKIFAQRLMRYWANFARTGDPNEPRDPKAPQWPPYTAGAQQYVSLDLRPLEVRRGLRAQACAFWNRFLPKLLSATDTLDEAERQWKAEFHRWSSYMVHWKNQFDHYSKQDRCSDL

[3] = system: […] (SEQ ID NO: 3) amyloid peptide; assay: Amyloid peptide/inhibitor coordination in dilute solution (1 mg/mL), drug captured after pellet washings; type: binding; details: FYTGAIIGNYF 1 mg/mL, 150 μM inhibitor loaded, by MS
Method: Amyloid Peptide/Inhibitor Coordination Studies in Dilute Solutions. […] Subsequently, 1 mL of DI water was added to wash the pellet (followed by vortexing until obtaining a homogenous dispersion) in order to remove any unbound inhibitor. The samples were then centrifuged again at the same conditions so as to pelletize the amyloid materials, and the supernatant was decanted. Another 1 mL of DI water was then added into the pellet, the mixture was vortexed, and the physically bound inhibitor into the dilute amyloid peptide dispersions was quantified by UV-Vis between 200-600 nm and MS. This step is denoted as wash 1 in our study. Two additional pellet purification cycles were realized with replacement of the decanted volume each time with 1 mL of fresh DI water (denoted as wash 2 and wash 3 respectively). The inhibitor-containing peptides amyloids were normalized at 400 nm over the respective no inhibitor-containing amyloid peptides at the specific washing step, and the measured inhibitor peak values (at 315 nm and 323 nm) were subtracted from that of the amyloid peptide carriers at the same wavelength and concentration. The amount of inhibitors coordinated with the amyloid peptide carriers was quantified based on a calibration curve by both UV-Vis and MS.
The peak at 315 nm was selected for inhibitor quantification due the absence of peaks at that range for both peptides. […] However, the peak at 315 nm was selected for inhibitor quantification, and the following equation was used for both peptides: A315=A315 ([…]/Donepezil)−A315 ([…])
The peak at 323 nm was used for inhibitor quantification due the absence of peaks at that range for both peptides.

[4] = system: […] (SEQ ID NO: 4) amyloid peptide; type: binding; details: YFTGAIIGNFY 1 mg/mL, 150 μM inhibitor loaded, by MS
Method: Amyloid Peptide/Inhibitor Coordination Studies in Dilute Solutions. […]. As a negative control, 1 mL of 0.1 M PBS buffer was added. The mixtures were vortexed and sonicated to homogenously disperse any solid aggregates and stirred overnight to allow for coordination. The mixtures were transferred to 2 mL Eppendorf tubes and centrifuged for 15 mins at 4,400 rpm (14° C.) to pelletize the amyloid bound-inhibitors, and the supernatant was decanted. Subsequently, 1 mL of DI water was added to wash the pellet (followed by vortexing until obtaining a homogenous dispersion) in order to remove any unbound inhibitor. The samples were then centrifuged again at the same conditions so as to pelletize the amyloid materials, and the supernatant was decanted. Another 1 mL of DI water was then added into the pellet, the mixture was vortexed, and the physically bound inhibitor into the dilute amyloid peptide dispersions was quantified by UV-Vis between 200-600 nm and MS. This step is denoted as wash 1 in our study. Two additional pellet purification cycles were realized with replacement of the decanted volume each time with 1 mL of fresh DI water (denoted as wash 2 and wash 3 respectively). The inhibitor-containing peptides amyloids were normalized at 400 nm over the respective no inhibitor-containing amyloid peptides at the specific washing step, and the measured inhibitor peak values (at 315 nm and 323 nm) were subtracted from that of the amyloid peptide carriers at the same wavelength and concentration. The amount of inhibitors coordinated with the amyloid peptide carriers was quantified based on a calibration curve by both UV-Vis and MS.
. The peak at 315 nm was selected for inhibitor quantification due the absence of peaks at that range for both peptides. […]. However, the peak at 315 nm was selected for inhibitor quantification, and the following equation was used for both peptides: A315=A315 ([…]/Donepezil)−A315 ([…])
[…]. The peak at 323 nm was used for inhibitor quantification due the absence of peaks at that range for both peptides. […].

CC12CC3CC(C)(C1)CC(N)(C3)C2 [memantine]
AD compound captured, Wash 1 ([1]; 1st pellet wash): 21 ± 1 µM | AD compound captured, Wash 2 ([1]; 2nd pellet wash, room temperature): 10 ± 1 µM | AD compound captured, Wash 3 ([1]; 3rd pellet wash, room temperature): 8 ± 1 µM | AD compound captured, Wash 1 ([2]; 1st pellet wash): 32 ± 2 µM | AD compound captured, Wash 2 ([2]; 2nd pellet wash): 16 ± 2 µM | AD compound captured, Wash 3 ([2]; 3rd pellet wash): 12 ± 3 µM | inhibition towards AChE (AChE): negligible inhibition | AD compound captured, Wash 1 ([3]; 1st pellet wash): 18 ± 3 µM | AD compound captured, Wash 2 ([3]; 2nd pellet wash): 5 ± 2 µM | AD compound captured, Wash 3 ([3]; 3rd pellet wash): 4 ± 2 µM | AD compound captured, Wash 1 ([4]; 1st pellet wash): 8 ± 1 µM | AD compound captured, Wash 2 ([4]; 2nd pellet wash): 3 ± 1 µM | AD compound captured, Wash 3 ([4]; 3rd pellet wash): 2 ± 1 µM
